# Test results from patent US4404215A, “Piperidyl phenyl trifluoroethanols” (Science Union et Cie, priority 1978, dated 1983).
# How the values were obtained:
# solubility = assay type: physicochemical; conditions: for solubility in organic solvents: most of the organic solvents
# [1] = antipyretic effect, baker yeast hyperthermia (LOUX); assay type: in vivo; conditions: rats; paracetamol 50 to 500 mg
# Method: The antipyretic effect of the compounds of formula I has been determined according to the method described by J. J. LOUX and cowork. Toxicol. and Appl. Pharmacol. 22 (1972) 672. According to this method a hyperthermic crisis occurs in the rats after subcutaneous injection of baker yeast.
# The compounds to be tested are administered orally in a suspension of an arabic gum solution 19 hours after the injection of yeast.
# The body temperatures are measured from 1 to 5 hours after the ingestion of the compounds of formula I by means of a thermistor. The dosages tested range from 25 to 200 mg/kg.
# The increase of body temperature in the control rats is about 2° in comparison of that of the untreated rats. The animals which receive the compounds of formula I show only a moderate increase of temperature, mainly 3 and 4 hours after the ingestion of the tested compound. The highest dosages (150 and 200 mg/kg) caused a return to the initial temperature in the treated animals.
# In similar experimental conditions, batches of rats receive paracetamol at dose ranging from 50 to 500 mg.
# [2] = nephrotoxicity and hepatotoxicity context; cited from earlier work
smiles,measurement,setting,value
"CCCCCCCCCCCCCCCCNc1ccc(C(O)C(F)(F)F)cc1 (racemic) [Example 8, 1-(4-nhexadecylaminophenyl) 2,2,2-trifluoroethanol]",solubility in dilute solutions of acids,solubility; hydrochloric acid or acetic acid,soluble
"CC(=O)Nc1ccc(C(O)C(F)(F)F)cc1 (centres unmarked) [Example 1, 1-(4-acetamidophenyl) 2,2,2-trifluoroethanol]",solubility in ethanol,solubility; ethanol,soluble
same,solubility in methanol,solubility; methanol,soluble
same,solubility in water,solubility,insoluble
"CC(C)C(=O)Nc1ccc(C(O)C(F)(F)F)cc1 (centres unmarked) [Example 2, 1-(4-isobutyramidophenyl) 2,2,2-trifluoroethanol]",solubility in organic solvents,solubility,soluble
same,solubility in water,solubility,insoluble
"OC(c1ccc(NC2CCN(CCc3ccccc3)CC2)cc1)C(F)(F)F (centres unmarked) [Example 9, 4-[4-(2,2,2-trifluoro 1-hydroxyethyl)phenylamino] 1-(2-phenylethyl) piperidine]",solubility in N/10 hydrochloric acid,solubility; just calculated amount of N/10 hydrochloric acid,soluble
"CCOC(c1ccc(NC(C)=O)cc1)C(F)(F)F (centres unmarked) [Example 10, 1-(4-acetamidophenyl) 1-ethoxy 2,2,2-trifluoroethane]",solubility in organic solvents,solubility,soluble
same,solubility in water,solubility,insoluble
CC(=O)Nc1ccc(O)cc1 [paracetamol],"useful dose which curbs significantly the increase of temperature, relative to compounds of formula I",[1],about twice of that of the compounds of formula I
same,toxicity,[2],well-known toxicity
